Like-named read-outs stand apart in the source and are kept apart here.
Experiments:
[1] = tested on: human BCRP; details: cited from earlier work
[2] = tested on: human P-gp; details: cited from earlier work
[3] = tested on: OATP1B1; details: cited from earlier work
[4] = tested on: OATP2B1; details: cited from earlier work
[5] = tested on: OATP1A2; details: cited from earlier work
[6] = cited from earlier work
[7] = tested on: OATP1B3; details: in vitro studies; cited from earlier work
[8] = cited from earlier work; remark: listed apart in the source
[9] = clinical; details: human, in vivo
Text: Healthy Chinese male subjects aged 18–45 years were recruited from a pool of over 200 healthy volunteers who had been genotyped for the ABCG2 421C>A (rs2231142) polymorphism. A total of 20 healthy Chinese male subjects were selected for the rosuvastatin pharmacokinetic study based on the ABCG2 421C>A genotypes. The study was reviewed and approved by the Joint Chinese University of Hong Kong-New Territories East Cluster Clinical Research Ethics Committee with reference number CRE-2010.524-T. The study was performed in accordance with the ethical standards laid down in the Declaration of Helsinki and subsequent revisions. Written informed consent was obtained from each participant.
All subjects were required to abstain from any prescription or non-prescription medications 2 weeks before and throughout the study. They were not allowed to take alcohol, tea, grapefruit juice, caffeine, soybean milk or dietary supplements and herbal products 2 weeks before and throughout the entire study period. They were also not allowed to smoke 2 weeks before and throughout the study. Subjects were requested to fast for 10 h before and 4 h after drug administration during the blood sampling sessions. Meals were standardized and consumed at 4 h and 10 h post-dosing. Drinking water was not allowed from 1 h pre-dose to 1 h post-dose except that needed for drug dosing at the time of blood sampling sessions. Subjects were asked to report any adverse effects at each visit to the study center.
This was an open-label, three-phase randomized crossover study. […] The herbal extracts were present as a powder which was taken in 150 ml water at room temperature. Blood samples were taken at intervals from 0 to 24 h on the rosuvastatin dosing days. During the study, subjects were frequently reminded of the requirements for diet restrictions, and they were requested to record their daily food intake, including the main meals, snacks and beverages of the day by using a simple food diary, which can help to monitor the food compliance during the study.
Plasma concentrations of rosuvastatin were determined by Liquid Chromatography-Tandem Mass Spectrometry (LC-MS/MS) using the corresponding isotopically labeled compound as an internal standard as described ([28]). The plasma samples were prepared using liquid–liquid extraction with diethyl ether. Chromatographic separation was accomplished on an Xterra MS C18 column (50 × 2.1 mm, 5 μm; Waters, Milford, MA). The mobile phase consisted of a gradient mixture of 0.015 mmol/L ammonium acetate in water (mobile phase A) and methanol (mobile phase B) at a flow rate of 0.4 mL/min. The gradient started at 20% mobile phase B for 0.5 min with a subsequent fast gradient to 100% mobile phase B in 1 min and maintained for another 2.5 min. The gradient was then returned to the initial mobile phase concentration in a chromatographic run of 8 min. MS/MS detection with quantification transition of m/z 480.1–418.1 and qualification transition of m/z 480.1–340.1 was used for rosuvastatin. The lower limit of quantification of rosuvastatin was 0.05 μg/L by using 200 μL plasma.
The pharmacokinetic parameters of rosuvastatin were calculated using non-compartmental methods with the aid of the computer program WinNolin (version 2.1, Pharsight Corporation). The maximum plasma concentration (Cmax) and time to Cmax (tmax) were obtained directly from the observed concentration-time data. The terminal elimination rate constant (λZ) was estimated by linear regression of the terminal portion of the concentration-time curve, and the elimination half-life (t1/2) was calculated as 0.693/λZ. Systemic exposure to rosuvastatin was evaluated by calculating the AUC using the linear trapezoidal rule and AUC0−∞ was calculated as AUC0−∞ = AUC0−t + Ct/Kel where Ct is the last quantifiable concentration. The oral clearance (CL/F) was calculated as Dose/AUC0−∞.

[10] = cited from earlier work; remark: listed apart in the source
[11] = cited from earlier work; remark: listed apart in the source
[12] = with green tea; 10 healthy volunteers; cited from earlier work
[13] = rosuvastatin administered with 300 mg pure crystalline EGCG (single dose)
[14] = pre-treatment with green tea extract (400 mg/kg) vs control

## Oc1cc(O)c2c(c1)O[C@H](c1cc(O)c(O)c(O)c1)[C@H](O)C2 [EGC, epigallocatechin]
[1]
  effect on BCRP-mediated dasatinib efflux: no significant effect
[2]
  effect on P-gp-mediated dasatinib efflux: no significant effect

## Oc1cc(O)c2c(c1)O[C@H](c1ccc(O)c(O)c1)[C@H](O)C2 [EC, epicatechin]
[1]
  effect on BCRP-mediated dasatinib efflux: no significant effect
[2]
  effect on P-gp-mediated dasatinib efflux: no significant effect

## O=C(O[C@@H]1Cc2c(O)cc(O)cc2O[C@@H]1c1ccc(O)c(O)c1)c1cc(O)c(O)c(O)c1 [ECG, epicatechin gallate]
[3]
  inhibition of OATP1B1: can inhibit
[4]
  inhibition of OATP2B1: can inhibit
[5]
  inhibition of OATP1A2: can inhibit
[1]
  effect on BCRP-mediated dasatinib efflux: no significant effect
[2]
  effect on P-gp-mediated dasatinib efflux: no significant effect

## CCN(CC)CCNC(=O)c1c(C)[nH]c(/C=C2\C(=O)Nc3ccc(F)cc32)c1C [sunitinib]
[6]; EGCG and sunitinib taken together
  effect of EGCG on bioavailability of sunitinib: reduced the bioavailability
[6]; EGCG taken 8 or 4 h before sunitinib administration
  effect of EGCG on the pharmacokinetics of sunitinib: no effect

## (–)-epigallocatechin-3-gallate [EGCG]
[4]; concentration-dependent
  effect on OATP2B1-mediated uptake of estrone-3-sulfate: inhibited
[5]; concentration-dependent
  effect on OATP1A2-mediated uptake of estrone-3-sulfate: inhibited
[1]
  effect on BCRP-mediated dasatinib efflux: no significant effect
[7]
  effect on OATP1B3: activate
[2]
  effect on P-gp-mediated dasatinib efflux: no significant effect

## CC(C)c1nc(N(C)S(C)(=O)=O)nc(-c2ccc(F)cc2)c1/C=C/[C@@H](O)C[C@@H](O)CC(=O)O [Rosuvastatin, rosuvastatin]
[8]; after giving EGCG daily for 10 days
  systemic exposure of rosuvastatin vs baseline before EGCG: not significantly different from the baseline value
[8]; [13]
  reduction of AUC up to 8 h: 19%
  reduction of Cmax: 15%
[9]; po, 10 mg
  Clearance (oral clearance CL/F): 85.1 (28.4) L/h
[9]; male
  AUC0−24h GMR (90%CI): 0.78
  Cmax GMR (90%CI): 0.71
[9]; male, 10 mg
  AUC(0-inf): 118 ng·h/mL
  AUC(0-t): 109 ng·h/mL
  Cmax: 13.1 (32.2) μg/L
  half-life: 6.21 h
  tmax: 3.0 (1.5, 6.0) h
[10]; SLCO1B1*1b/*1b subjects
  change of systemic exposure of rosuvastatin after baicalin compared to placebo: −41.9%
[10]; SLCO1B1*1b/*15 subjects
  change of systemic exposure of rosuvastatin after baicalin compared to placebo: −23.9%

## CC(C)(C)NCC(O)COc1cccc2c1CC(O)C(O)C2 (centres unmarked) [nadolol]
[11]; EGCG alone (150 mg/kg)
  reduction in AUC of nadolol: 73%
  reduction in Cmax of nadolol: 81%
[11]; [14]
  reduction in AUC of nadolol: 74%
  reduction in Cmax of nadolol: 85%
[12]
  decrease of AUC of nadolol: 85.0%
  decrease of Cmax of nadolol: 85.3%

From article PMC8987933 (Frontiers in Nutrition, 2022)
